Legend:
[1] = tested on: E. coli K12, A. baumannii, P. aeruginosa PA14; assay: Quantification of bacterial binding of fluorescently labelled compounds; assay type: cell-based; details: 1 μM in PBS, rt, 1 h incubation, washing, 485/520 nm
Method: Figure 4 Staining of Gram‐negative bacteria with fluorescently labeled colistin conjugates. a) Three Gram‐negative bacteria (E. coli K12, A. baumannii, P. aeruginosa PA14) were grown in T‐medium, to an OD600 of 1.0, and the fluorescently labeled compounds were added (1 μM in PBS, rt, 1 h incubation), followed by washing steps and a quantification of fluorescence in the wells. C‐Fluo: 5(6)‐carboxyfluorescein. […] An overlay of fluorescence (485/520 nm) and phase contrast pictures is shown. […]
Cell counting: 20 µl of a cell suspension were mixed with 20 µl Cedex Tryptan Blue Solution. 10 µl of the mixture were measured automatically in a cell counter (Cedex XS Cell Analyzer, Roche) in duplicate.
Quantification of bacterial binding of fluorescently labelled compounds The bacterial strains A. baumannii, E. coli K12 and P. aeruginosa PA14 were cultivated in T-medium at 37 °C to exponential growth (OD600 = 2-3). […] Afterwards, the bacteria were washed twice with PBS, suspended at OD600 = 0.2 in PBS and fluorescence was measured at 485/520 nm with 200 µl of bacterial suspensions in black 96-well microtiter plates from above in triplicate. […]

[2] = tested on: human neutrophil granulocytes (PMN); assay: Activation of human neutrophil granulocytes (CD66b, flow cytometry); assay type: cell-based; details: 0.1 μM fMLP, 1 h at 37 °C with shaking, FITC-labeled anti CD66b antibody; three independent experiments
Method: HPLC-MS measurements were carried out in triplicate. Data from MRM measurements were analyzed with Skyline (vers. 18.3, MacCoss Laboratory, University of Washington).
Isolation of Neutrophil Granulocytes from human blood
The MACSxpress Neutrophil Isolation Kit, human from Miltenyi Biotec (Bergisch-Gladbach, Germany) was employed. Fresh venous EDTA blood was processed within 1 h. 65 mg of the MACSxpress whole blood isolation cocktail (lyophilized powder) were mixed with 1 ml of buffer A (from the kit). Then 1 ml of buffer B (from the kit) was added, and the well-mixed cocktail was added to 4 ml of peripheral whole blood in a 15 ml tube. The mixture was gently inverted 3 times and mixed on a tube rotator at 50 rpm for 5 min at rt. The tube was placed, without cap, for 20 min into a strong magnetic field (neodymium magnets). The suspension containing the PMN was collected into a fresh 15 ml tube by careful pipetting. […]
All steps were carried out with cooled media (4 °C) and the vials were kept on ice. Freshly isolated neutrophil granulocytes in RPMI 1640 were counted, followed by centrifugation at 200 x g for 10 min at 4 °C. […]
50 µl of the diluted detection antibody (diluted with Reagent Diluent) with a final concentration of 250 ng/ml were added and incubated for 1.5 h at 37 °C. […] The absorbance was measured at 450 nm […]

[3] = tested on: neutrophil granulocytes (PMN); assay: Release of neutrophil elastase from neutrophil granulocytes (ELISA); assay type: cell-based, human; details: stimulation with 0.1 μM fMLP
Method: Figure 5 Cellular proof of concept for triggered antibiotic release from 6. a) Release of neutrophil elastase (NE) from neutrophil granulocytes. PMN were isolated and suspended in RPMI 1640. For activation, 0.1 μM fMLP was added. The samples were incubated for 1 h at 37 °C, centrifuged to remove cells, and the NE concentration was determined in the supernatant by ELISA. Values normalized to 1×10^6 cells mL^−1. Data are presented as the mean of 4 separate experiments. *p<0.03 compared to unactivated. b) Activity of NE after co‐cultivation of PMN with E. coli K12 in presence of 1 or 6. 5×10^5 cells mL^−1 of PMN were co‐cultivated with 8×10^6 cells mL^−1 of E. coli K12 (ratio of bacteria : PMN 16:1) for 1 h at 37 °C in RPMI 1640/HEPES‐NaCl 1:1. Data are presented as the mean of two separate experiments. c) Release of colistin from 6. […] After 1 h colistin concentrations were determined by HPLC–MS. […]
50 µl of the diluted detection antibody (diluted with Reagent Diluent) with a final concentration of 250 ng/ml were added and incubated for 1.5 h at 37 °C. […] The absorbance was measured at 450 nm together with a correction wavelength of 570 nm, the value of which was subtracted.
Calculation of results: All samples and standards were measured in duplicate. […]

Substance	bacterial binding (fluorescence), in words [1]	increase of the activation state marker CD66b [2] [fold]	amount of elastase released by neutrophil granulocytes ([3]; RPMI 1640, 1 h, 37 °C, supernatant, ELISA, normalized to 1×10^6 cells mL^−1, mean of 4 experiments, basal 39) [ng/mL]	amount of elastase released, as activity ([3]; converted from ELISA amount, basal 2.5) [mU mL^−1]
5(6)‐carboxyfluorescein	did hardly show binding above background	–	–	–
N-Formyl-Met-Leu-Phe [fMLP, formyl‐methionyl‐leucyl‐phenylalanine]	–	2.5	84	5.5

Reference: publication PMC8456958, “Selective Bacterial Targeting and Infection‐Triggered Release of Antibiotic Colistin Conjugates” (Angewandte Chemie (International Ed. in English), 2021)
